From patent US20060281807A1, “Quassinoid compositions for the treatment of cancer and other proliferative diseases” (Tapestry Pharmaceuticals, Inc., priority 2005, published 2006)

How the values were obtained:
[1] = test system: Colon 38 (murine colon adenocarcinoma); assay: Disk diffusion assay, zone of inhibition, Colon 38; zone differentials, potency and product; format: cell-based; design: key to C38ΔL1210 / C38ΔCFU: difference of zone of inhibition values, in zone units; details: for Sum: C38ΔL1210 plus C38ΔCFU; for C38ΔL1210 / C38ΔCFU: difference between zone of inhibition values; for C38ΔL1210: Colon38 vs L1210 leukemia; for C38ΔCFU: Colon38 vs normal cell CFU-GM; for Product: potency multiplied by zone differentials
Protocol: A disk diffusion assay was performed to define the differential cell killing ability of 15-O-(3′-hydroxy-3′-isopropyl-4′-methylpentanoyl)bruceolide. Seven cell types were assayed: L1210 (ATCC CCL-219) (murine leukemia), CCRF-CEM (ATCC CCL-119) (human leukemia), Colon 38 (murine colon adenocarcinoma), HCT116 (ATCC CCL-247) (human colorectal carcinoma), H125 (human lung carcinoma). The murine and human granulocyte/macrophage progenitor cell line (CFU-GM), served as controls.
Colon 38 cells (about 1 gram) were cut into small fragments in 15 mL of Hank's Balanced Salt Solution (HBSS) over a 100-mesh sieve and gently forced through by the scissors with HBSS constantly perfusing the sieve. The resulting material was then drawn into and out of a 5 mL syringe without a needle to further disperse the cell clumps. The cell solution was diluted and plated in 0.3% agarose in DMEM plus 10% heat-inactivated Bovine Calf Serum (BCS). For plating of all of the cell types (except controls), the 60 mm plates were first prepared with a hard agar bottom layer (0.6% agar in RPMI-1640 plus 15% BCS).
A 15 μl sample of each compound was dropped onto a 6.5 mm disk (Baxter filter disks). The disks were allowed to dry overnight and then placed close to the edge of a petri dish. Depending upon the cell type, the dishes were incubated for 7 to 10 days, and examined by an inverted stereo-microscope (10×) for measurement of the zone of inhibition. The zone of inhibition was measured from the edge of the filter disk to the beginning of normal-sized colony formation. The diameter of the filter disk, 6.5 mm, was arbitrarily taken as a zone of 200 units. Compounds that were selective for killing solid tumors, as compared to leukemia or normal cells (“solid tumor selective”) were defined as those compounds which produced a difference in zones between solid tumor cells and either normal or leukemia cells of at least 250 units. The results of this analysis are set forth in Table 4, which illustrates the relative diameters of the zones of inhibition by various drugs on the growth of the respective cell types at various drug dilutions.
The degree of differential sensitivity of several inventive compounds was compared with respect to the Colon38 cell line, the L1210 cell line, and the control CFU-GM cell lines. The degree of differential sensitivity was estimated by calculating the difference between the zone of inhibition values, as determined in Example 6, for the solid tumor compared to either the leukemia (C38ΔL1210) or normal cell (C38ΔCFU).
The potency of each of several inventive compounds was determined by identifying the dilution required to yield an average zone of inhibition of 500 units for the Colon38 cell type. Then the potency and the zone differentials were multiplied to define a “product” (see Table 5), which can be used to rank the compounds tested for their potential for further development; the greater the product value the greater the probability of useful chemotherapeutic utility.

[2] = test system: SK-N-AS; assay: MTT cytotoxicity assay (% kill), SK-N-AS; format: cell-based, human; details: 1.0 μg/mL, MTT after five days
Protocol: (§1) The following human tumor cell lines were obtained and cultured in sextuplicate microwells at 37° C. and 5% CO2 in humidified air and in 10% FBS in Eagles MEM: SK—N—FI, SK—N-AS, LS-174T, WiDr, HuTu-80, MCF7, NCI-AR, MES-Sar, and PL-45. Cells from each cell line were separately treated with an amount of one of the compounds of Formula I, II, or III (see Table 1). Cells were exposed to each compound (0.1 μg/mL or 1.0 μg/mL) for one hour or 24 hours, rinsed with drug-free media, and incubated for an additional five days. The number of viable cells after five days was measured using an MTT (3-(4,5-dimethylthiazol-2-yl)-2,5-diphenyltetrazolium bromide) assay (see, e.g., Mosmann, J. Immunol. Methods, 65(1-2), 55-63 (1983)).
(§2) The cytotoxicity of each drug was determined and expressed as the percent of cells killed (“% kill”).

[3] = test system: LS-174T; assay: MTT cytotoxicity assay (% kill), LS-174T; format: cell-based, human; details: 1.0 μg/mL, MTT after five days
Protocol: as §1, §2

Row | Compound | Sum [1] | C38ΔL1210 [1] | C38ΔCFU [1] | Product [1] | % Kill, SK-N-AS ([2]; 1 h exposure) | % Kill, SK-N-AS ([2]; 24 h exposure) | % Kill, LS-174T ([3]; 1 h exposure) | % Kill, LS-174T ([3]; 24 h exposure)
1 | COC(=O)C12OCC34C(CC5C(C)=C(O)C(=O)CC5(C)C3C(O)C1O)OC(=O)C(OC(=O)Cc1ccccc1)C24 (stereo not shown) [15-O-phenylacetyl bruceolide] | 1000 | 500 | 500 | 4000 | 0% | 38% | 20% | 61%
2 | COC(=O)[C@@]12OC[C@]34[C@H]([C@@H](O)[C@@H]1O)[C@@]1(C)CC(=O)C(O)=C(C)[C@@H]1C[C@H]3OC(=O)[C@H](OC(=O)CC(C)(C)C)[C@@H]24 [15-O-(3′,3′-dimethylbutanoyl)-bruceolide] | 800 | 450 | 350 | 3200 | 0% | 62% | 7% | 60%
